Assay results as given in article doi:10.1101/2024.08.19.608619, “Discovery of potent SARS-CoV-2 nsp3 macrodomain inhibitors uncovers lack of translation to cellular antiviral response” (bioRxiv, 2024).
Where two headings read alike, the source gives them in different places.

Assays:
SARS-CoV-2 nsp3-mac1 [1] = target: T1, SARS-CoV-2 nsp3-mac1 (Severe acute respiratory syndrome coronavirus 2, UniProt P0DTD1); test: biochemical; format: biochemical; conditions: SARS-CoV-2 nsp3 macrodomain TR-FRET single point, n=2
SARS-CoV-2 nsp3-mac1 [2] = target: T1, SARS-CoV-2 nsp3-mac1; test: biochemical; parameters: SARS-CoV-2 nsp3 macrodomain TR-FRET single point, per cent inhibition, n=2
[3] = read-out: perc_inhibition_mean, batch_name=ASAP-0000296-001
[4] = read-out: perc_inhibition_mean, batch_name=ASAP-0000297-001
[5] = read-out: perc_inhibition_mean, batch_name=ASAP-0000298-001
[6] = read-out: perc_inhibition_mean, batch_name=ASAP-0000299-001
[7] = read-out: perc_inhibition_mean, batch_name=ASAP-0000300-001
[8] = read-out: perc_inhibition_mean, batch_name=ASAP-0000301-001
[9] = read-out: perc_inhibition_mean, batch_name=ASAP-0000302-001
[10] = read-out: perc_inhibition_mean, batch_name=ASAP-0000303-001
[11] = read-out: perc_inhibition_mean, batch_name=ASAP-0000304-001
[12] = read-out: perc_inhibition_mean, batch_name=ASAP-0000305-001
[13] = read-out: perc_inhibition_mean, batch_name=ASAP-0000306-001
[14] = read-out: perc_inhibition_mean, batch_name=ASAP-0000307-001
[15] = read-out: perc_inhibition_mean, batch_name=ASAP-0000308-001
[16] = read-out: perc_inhibition_mean, batch_name=ASAP-0000309-001
[17] = read-out: perc_inhibition_mean, batch_name=ASAP-0000310-001
[18] = read-out: perc_inhibition_mean, batch_name=ASAP-0000311-001
[19] = read-out: perc_inhibition_mean, batch_name=ASAP-0000312-001
[20] = read-out: perc_inhibition_mean, batch_name=ASAP-0000313-001
[21] = read-out: perc_inhibition_mean, batch_name=ASAP-0000314-001
[22] = read-out: perc_inhibition_mean, batch_name=ASAP-0000315-001
[23] = read-out: perc_inhibition_mean, batch_name=ASAP-0000316-001
[24] = read-out: perc_inhibition_mean, batch_name=ASAP-0000317-001
[25] = read-out: perc_inhibition_mean, batch_name=ASAP-0000318-001
[26] = read-out: perc_inhibition_mean, batch_name=ASAP-0000319-001
[27] = read-out: perc_inhibition_mean, batch_name=ASAP-0000320-001
[28] = read-out: perc_inhibition_mean, batch_name=ASAP-0000321-001
[29] = read-out: perc_inhibition_mean, batch_name=ASAP-0000322-001
[30] = read-out: perc_inhibition_mean, batch_name=ASAP-0000323-001
[31] = read-out: perc_inhibition_mean, batch_name=ASAP-0000324-001

SMILES	perc_inhibition_mean (SARS-CoV-2 nsp3-mac1 [1]; concentration 49.75 uM) [%]	perc_inhibition_mean (SARS-CoV-2 nsp3-mac1 [1]; concentration 99.5 uM) [%]	also measured
O=C(Nc1ccccc1)Nc1ccc(C(=O)N[C@H]2CC[C@H](CO)CC2)cc1 [ASAP-0000296]	-0.639	-2.577	inhibition at 49.75 µM (SARS-CoV-2 nsp3-mac1 [2]; [3]): -0.639%; inhibition at 99.5 µM (SARS-CoV-2 nsp3-mac1 [2]; [3]): -2.58%
CC1(C)CN(C(=O)c2ccc(NC(=O)Nc3ccccc3)cc2)C[C@@]1(F)C(=O)O [ASAP-0000297]	-2.566	-5.193	inhibition at 49.75 µM (SARS-CoV-2 nsp3-mac1 [2]; [4]): -2.57%; inhibition at 99.5 µM (SARS-CoV-2 nsp3-mac1 [2]; [4]): -5.19%
O=C(CCN(Cc1cccc(Cl)c1)C(=O)C1(F)CCCCC1)N1CCNCC1 [ASAP-0000298]	-3.576	0.185	inhibition at 49.75 µM (SARS-CoV-2 nsp3-mac1 [2]; [5]): -3.58%; inhibition at 99.5 µM (SARS-CoV-2 nsp3-mac1 [2]; [5]): 0.185%
CCN(Cc1cccnc1)C(=O)c1ccc(NC(=O)Nc2ccccc2)cc1 [ASAP-0000299]	3.632	-7.091	inhibition at 49.75 µM (SARS-CoV-2 nsp3-mac1 [2]; [6]): 3.63%; inhibition at 99.5 µM (SARS-CoV-2 nsp3-mac1 [2]; [6]): -7.09%
Cc1n[nH]cc1CN(C)C(=O)c1ccc(NC(=O)Nc2ccccc2)cc1 [ASAP-0000300]	-3.77	-0.031	inhibition at 49.75 µM (SARS-CoV-2 nsp3-mac1 [2]; [7]): -3.77%; inhibition at 99.5 µM (SARS-CoV-2 nsp3-mac1 [2]; [7]): -0.031%
C[C@@H]1CN(C(=O)c2ccc(NC(=O)Nc3ccccc3)cc2)CC(=O)N1 [ASAP-0000301]	-0.707	0.29	inhibition at 49.75 µM (SARS-CoV-2 nsp3-mac1 [2]; [8]): -0.707%; inhibition at 99.5 µM (SARS-CoV-2 nsp3-mac1 [2]; [8]): 0.29%
C[C@@H]1[C@H](O)CCCN1C(=O)c1ccc(NC(=O)Nc2ccccc2)cc1 [ASAP-0000302]	-2.963	-2.724	inhibition at 49.75 µM (SARS-CoV-2 nsp3-mac1 [2]; [9]): -2.96%; inhibition at 99.5 µM (SARS-CoV-2 nsp3-mac1 [2]; [9]): -2.72%
O=C(Nc1ccccc1)Nc1ccc(C(=O)N2CCn3nccc3C2)cc1 [ASAP-0000303]	-3.111	2.299	inhibition at 49.75 µM (SARS-CoV-2 nsp3-mac1 [2]; [10]): -3.11%; inhibition at 99.5 µM (SARS-CoV-2 nsp3-mac1 [2]; [10]): 2.3%
O=C(Nc1ccccc1)Nc1ccc(C(=O)NCc2ccnc(F)c2)cc1 [ASAP-0000304]	-0.36	4.92	inhibition at 49.75 µM (SARS-CoV-2 nsp3-mac1 [2]; [11]): -0.36%; inhibition at 99.5 µM (SARS-CoV-2 nsp3-mac1 [2]; [11]): 4.92%
CC1(C)CNCCN1C(=O)c1ccc(NC(=O)Nc2ccccc2)cc1 [ASAP-0000305]	2.242	1.393	inhibition at 49.75 µM (SARS-CoV-2 nsp3-mac1 [2]; [12]): 2.24%; inhibition at 99.5 µM (SARS-CoV-2 nsp3-mac1 [2]; [12]): 1.39%
NCC(F)(F)CNC(=O)c1ccc(NC(=O)Nc2ccccc2)cc1 [ASAP-0000306]	-0.965	-1.174	inhibition at 49.75 µM (SARS-CoV-2 nsp3-mac1 [2]; [13]): -0.965%; inhibition at 99.5 µM (SARS-CoV-2 nsp3-mac1 [2]; [13]): -1.17%
Cn1cc(NC(=O)c2ccc(NC(=O)Nc3ccccc3)cc2)c(C#N)n1 [ASAP-0000307]	2.492	-0.539	inhibition at 49.75 µM (SARS-CoV-2 nsp3-mac1 [2]; [14]): 2.49%; inhibition at 99.5 µM (SARS-CoV-2 nsp3-mac1 [2]; [14]): -0.539%
O=C(Nc1ccccc1)Nc1ccc(C(=O)NCCc2cccnc2)cc1 [ASAP-0000308]	1.269	10.372	inhibition at 49.75 µM (SARS-CoV-2 nsp3-mac1 [2]; [15]): 1.27%; inhibition at 99.5 µM (SARS-CoV-2 nsp3-mac1 [2]; [15]): 10.4%
COc1cccc(NC(=O)c2ccc(NC(=O)Nc3ccccc3)cc2)n1 [ASAP-0000309]	4.647	5.367	inhibition at 49.75 µM (SARS-CoV-2 nsp3-mac1 [2]; [16]): 4.65%; inhibition at 99.5 µM (SARS-CoV-2 nsp3-mac1 [2]; [16]): 5.37%
O=C(O)c1sccc1C(=O)N1CCC(c2ccn3ncc(C(=O)N4CCCCC4)c3c2)CC1 [ASAP-0000310]	55.49	71.528	inhibition at 49.75 µM (SARS-CoV-2 nsp3-mac1 [2]; [17]): 55.5%; inhibition at 99.5 µM (SARS-CoV-2 nsp3-mac1 [2]; [17]): 71.5%
O=C(CCN(Cc1cccc(Cl)c1)C(=O)c1ccccc1F)N1CCNCC1 [ASAP-0000311]	-0.625	0.395	inhibition at 49.75 µM (SARS-CoV-2 nsp3-mac1 [2]; [18]): -0.625%; inhibition at 99.5 µM (SARS-CoV-2 nsp3-mac1 [2]; [18]): 0.395%
C[C@]1(C(=O)N(CCC(=O)N2CCNCC2)Cc2cccc(Cl)c2)CCCN1 [ASAP-0000312]	1.403	2.129	inhibition at 49.75 µM (SARS-CoV-2 nsp3-mac1 [2]; [19]): 1.4%; inhibition at 99.5 µM (SARS-CoV-2 nsp3-mac1 [2]; [19]): 2.13%
O=C(Nc1ccccc1)Nc1ccc(C(=O)Nc2ncccc2F)cc1 [ASAP-0000313]	4.588	10.201	inhibition at 49.75 µM (SARS-CoV-2 nsp3-mac1 [2]; [20]): 4.59%; inhibition at 99.5 µM (SARS-CoV-2 nsp3-mac1 [2]; [20]): 10.2%
Cc1ncc(C(=O)N(CCC(=O)N2CCNCC2)Cc2cccc(Cl)c2)cc1N [ASAP-0000314]	1.351	1.305	inhibition at 49.75 µM (SARS-CoV-2 nsp3-mac1 [2]; [21]): 1.35%; inhibition at 99.5 µM (SARS-CoV-2 nsp3-mac1 [2]; [21]): 1.3%
CC(C)c1c[nH]nc1NC(=O)c1ccc(NC(=O)Nc2ccccc2)cc1 [ASAP-0000315]	6.988	8.502	inhibition at 49.75 µM (SARS-CoV-2 nsp3-mac1 [2]; [22]): 6.99%; inhibition at 99.5 µM (SARS-CoV-2 nsp3-mac1 [2]; [22]): 8.5%
CCc1n[nH]c(NC(=O)c2ccc(NC(=O)Nc3ccccc3)cc2)c1Br [ASAP-0000316]	-5.574	0.467	inhibition at 49.75 µM (SARS-CoV-2 nsp3-mac1 [2]; [23]): -5.57%; inhibition at 99.5 µM (SARS-CoV-2 nsp3-mac1 [2]; [23]): 0.467%
O=C(Nc1ccccc1)Nc1ccc(C(=O)Nc2nnc(C(F)(F)F)[nH]2)cc1 [ASAP-0000317]	-3.198	-1.459	inhibition at 49.75 µM (SARS-CoV-2 nsp3-mac1 [2]; [24]): -3.2%; inhibition at 99.5 µM (SARS-CoV-2 nsp3-mac1 [2]; [24]): -1.46%
O=C(CCN(Cc1cccc(Cl)c1)C(=O)c1c[nH]c(=O)cn1)N1CCNCC1 [ASAP-0000318]	-2.705	0.98	inhibition at 49.75 µM (SARS-CoV-2 nsp3-mac1 [2]; [25]): -2.71%; inhibition at 99.5 µM (SARS-CoV-2 nsp3-mac1 [2]; [25]): 0.98%
Nc1ncc(C(=O)N(CCC(=O)N2CCNCC2)Cc2cccc(Cl)c2)cn1 [ASAP-0000319]	-2.76	-1.726	inhibition at 49.75 µM (SARS-CoV-2 nsp3-mac1 [2]; [26]): -2.76%; inhibition at 99.5 µM (SARS-CoV-2 nsp3-mac1 [2]; [26]): -1.73%
CCn1cc(CNC(=O)c2ccc(NC(=O)Nc3ccccc3)cc2)cn1 [ASAP-0000320]	-1.76	3.797	inhibition at 49.75 µM (SARS-CoV-2 nsp3-mac1 [2]; [27]): -1.76%; inhibition at 99.5 µM (SARS-CoV-2 nsp3-mac1 [2]; [27]): 3.8%
Cn1c(C(=O)N(CCC(=O)N2CCNCC2)Cc2cccc(Cl)c2)cnc1O [ASAP-0000321]	-4.765	-2.757	inhibition at 49.75 µM (SARS-CoV-2 nsp3-mac1 [2]; [28]): -4.76%; inhibition at 99.5 µM (SARS-CoV-2 nsp3-mac1 [2]; [28]): -2.76%
CC(C)n1nccc1NC(=O)c1ccc(NC(=O)Nc2ccccc2)cc1 [ASAP-0000322]	-1.998	-0.924	inhibition at 49.75 µM (SARS-CoV-2 nsp3-mac1 [2]; [29]): -2%; inhibition at 99.5 µM (SARS-CoV-2 nsp3-mac1 [2]; [29]): -0.924%
O=C(CCN(Cc1cccc(Cl)c1)C(=O)[C@@H]1CNCC12CC2)N1CCNCC1 [ASAP-0000323]	4.205	2.382	inhibition at 49.75 µM (SARS-CoV-2 nsp3-mac1 [2]; [30]): 4.21%; inhibition at 99.5 µM (SARS-CoV-2 nsp3-mac1 [2]; [30]): 2.38%
CO[C@@H]1CCCN(C(=O)c2cnn3ccc(C4CCN(C(=O)c5ccccc5)CC4)cc23)C1 [ASAP-0000324]	22.606	39.842	inhibition at 49.75 µM (SARS-CoV-2 nsp3-mac1 [2]; [31]): 22.6%; inhibition at 99.5 µM (SARS-CoV-2 nsp3-mac1 [2]; [31]): 39.8%
